Test results reported in patent US6589972B2, “β-phenylalanine derivatives as integrin antagonists” (Bayer Aktiengesellschaft, priority 1999, dated 2003).
Structures can show the parent of a compound that is named as a salt.

Molecular target: T1, αvβ3 from human A375 cells (Homo sapiens, UniProt P05106+P06756)
T1 construct: αvβ3 from human A375 cells was purified; endogenous in cells; host or cells: human A375 cells; receptor purified from the cells and used detergent-solubilised
Assay: αvβ3 echistatin SPA binding assay
Conditions: purified αvβ3, labelled echistatin, WGA SPA beads
Method: αvβ3 from human A375 cells was purified analogously to a procedure which was described by Wong et al. (Molecular Pharmacology, 50, 529-537 (1996)). 10 μl of αvβ3 (5 ng) in TBS pH 7.6, 2 mM CaCl2, 1 mM MgCl2, 1% n-octyl glucopyranoside (Sigma); 10 μl of test substance in TBS pH 7.6, 0.1% DMSO and 45 μl of TBS pH 7.6, 2 mM CaCl2, 1 mM MgCl2, 1 mM MnCl2 were in each case incubated at room temperature for 1 h. 25 μl of WGA SPA beads (Amersham, 4 mg/ml) and 10 μl of echistatin (0.1 μCi, Amersham, chloramine T-labelled) were then added in each case. After 16 hours at room temperature, the samples were measured in a scintillation measuring apparatus (Wallac 1450).

T1 sequence (P06756 31-889 limits assumed): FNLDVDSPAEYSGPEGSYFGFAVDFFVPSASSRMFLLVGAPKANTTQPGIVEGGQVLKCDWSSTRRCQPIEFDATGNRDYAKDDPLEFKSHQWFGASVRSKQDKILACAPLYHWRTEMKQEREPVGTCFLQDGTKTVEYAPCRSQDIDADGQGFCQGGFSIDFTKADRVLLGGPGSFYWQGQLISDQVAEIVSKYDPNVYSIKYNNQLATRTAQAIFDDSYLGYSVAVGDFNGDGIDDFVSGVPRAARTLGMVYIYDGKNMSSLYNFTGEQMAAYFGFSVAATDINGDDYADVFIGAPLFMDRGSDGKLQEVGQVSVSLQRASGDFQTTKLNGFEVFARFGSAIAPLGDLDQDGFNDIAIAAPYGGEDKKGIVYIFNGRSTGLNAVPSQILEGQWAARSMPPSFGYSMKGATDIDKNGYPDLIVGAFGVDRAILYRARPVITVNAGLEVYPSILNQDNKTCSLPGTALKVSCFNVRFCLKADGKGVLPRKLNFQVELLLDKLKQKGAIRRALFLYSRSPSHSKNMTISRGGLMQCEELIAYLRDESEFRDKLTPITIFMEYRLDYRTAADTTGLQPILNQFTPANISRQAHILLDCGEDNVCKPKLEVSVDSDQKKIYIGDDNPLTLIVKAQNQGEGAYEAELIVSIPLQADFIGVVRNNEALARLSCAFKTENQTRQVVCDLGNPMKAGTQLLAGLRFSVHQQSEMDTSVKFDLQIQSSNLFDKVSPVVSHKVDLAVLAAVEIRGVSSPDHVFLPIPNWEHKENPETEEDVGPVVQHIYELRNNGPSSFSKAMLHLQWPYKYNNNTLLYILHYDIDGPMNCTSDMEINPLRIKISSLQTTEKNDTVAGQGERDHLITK
T1 sequence (P06756 891-1048 partner limits assumed): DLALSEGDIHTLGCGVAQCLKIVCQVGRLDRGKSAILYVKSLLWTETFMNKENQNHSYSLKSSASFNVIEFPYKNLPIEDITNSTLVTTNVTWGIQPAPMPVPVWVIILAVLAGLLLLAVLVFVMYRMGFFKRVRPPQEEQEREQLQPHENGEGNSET
T1 sequence (P05106 27-788): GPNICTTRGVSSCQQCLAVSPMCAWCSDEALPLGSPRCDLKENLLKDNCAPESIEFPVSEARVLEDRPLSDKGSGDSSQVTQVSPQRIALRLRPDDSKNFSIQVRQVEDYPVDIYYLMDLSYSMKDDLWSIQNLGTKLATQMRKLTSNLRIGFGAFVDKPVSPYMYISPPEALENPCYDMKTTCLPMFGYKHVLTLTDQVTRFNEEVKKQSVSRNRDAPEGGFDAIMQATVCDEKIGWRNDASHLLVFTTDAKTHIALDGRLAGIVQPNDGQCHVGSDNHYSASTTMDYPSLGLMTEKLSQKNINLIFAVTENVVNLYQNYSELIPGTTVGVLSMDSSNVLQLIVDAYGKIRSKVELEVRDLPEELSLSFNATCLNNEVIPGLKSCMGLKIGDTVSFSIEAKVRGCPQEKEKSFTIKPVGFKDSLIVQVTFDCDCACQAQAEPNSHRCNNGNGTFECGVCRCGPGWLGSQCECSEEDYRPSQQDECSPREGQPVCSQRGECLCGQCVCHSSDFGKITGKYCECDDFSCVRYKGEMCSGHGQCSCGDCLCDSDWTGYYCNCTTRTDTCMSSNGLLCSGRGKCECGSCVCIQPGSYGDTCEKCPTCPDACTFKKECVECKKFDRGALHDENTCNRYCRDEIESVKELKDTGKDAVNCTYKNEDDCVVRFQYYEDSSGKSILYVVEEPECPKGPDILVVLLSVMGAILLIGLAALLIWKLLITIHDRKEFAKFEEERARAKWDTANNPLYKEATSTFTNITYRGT

Row | Structure (SMILES) | IC50
1 | CCC(C(=O)NC(CC(=O)O)c1cccc(NS(=O)(=O)c2cccc(NC(=N)N)c2)c1)c1ccccc1 (mixture of isomers) [Example 7, 3-(3-[3-Guanidino-benzenesulphonylamino]-phenyl)-3-(2-phenylbutyrylamino)-propionic acid] | 115 nM
2 | N=C(N)Nc1cccc(S(=O)(=O)Nc2cccc(C(CC(=O)O)NS(=O)(=O)c3ccccc3)c2)c1 (stereo not shown) [Example 1, 3-Benzenesulphonylamino-3-[3-(3-guanidino-benzenesulphonylamino)-phenyl]-3-propionic acid, trifluoroacetic acid salt] | 19 nM
3 | N=C(N)Nc1cccc(C(=O)Nc2cccc(C(CC(=O)O)NS(=O)(=O)c3ccccc3)c2)c1 (stereo not shown) [Example 2, 3-Benzenesulphonylamino-3-[3-(3-guanidino-benzoylamino)-phenyl]-propionic acid, trifluoroacetic acid salt] | 390 nM
4 | Cc1cc(C)c(CC(=O)NC(CC(=O)O)c2cccc(NS(=O)(=O)c3cccc(NC(=N)N)c3)c2)c(C)c1 (stereo not shown) [Example 3, 3-(3-[3-Guanidinobenzenesulphonylamino]-phenyl)-3-(2,4,6-trimethylphenylacetylamino)-propionic acid, trfiluoroacetic acid salt] | 153 nM
5 | N=C(N)Nc1cccc(S(=O)(=O)Nc2cccc(C(CC(=O)O)NC(=O)c3ccccc3)c2)c1 (stereo not shown) [Example 4, 3-Benzoylamino-3-[3-(3-guanidino-benzenesulphonylamino)-phenyl]-propionic acid] | 12.8 nM
6 | N=C(N)Nc1cccc(S(=O)(=O)Nc2cccc(C(CC(=O)O)NC(=O)Cc3ccc(Cl)cc3Cl)c2)c1 (stereo not shown) [Example 5] | 72.4 nM
7 | N=C(N)Nc1cccc(S(=O)(=O)Nc2cccc(C(CC(=O)O)NC(=O)CCc3ccccc3)c2)c1 (stereo not shown) [Example 6, 3-(3-[3-Guanidino-benzenesulphonylamino]-phenyl)-3-phenylpropionylamino-propionic acid] | 36.2 nM
8 | N=C(N)Nc1cccc(COc2cccc(C(CC(=O)O)NS(=O)(=O)c3ccccc3)c2)c1 (stereo not shown) [Example 8, 3-Benzenesulphonylamino-3-[3-(3-guanidino-benzyloxy)-phenyl]-propionic acid] | 33 nM
9 | O=C(O)CC(NS(=O)(=O)c1ccccc1)c1cccc(NS(=O)(=O)c2cccc(NC3=NCCN3)c2)c1 (stereo not shown) [Example 9] | 0.295 nM

Molecular target: αvβ3 receptor (Homo sapiens, UniProt P05106+P06756)
Assay: not given
Conditions: disclosed in WO98/00395; cited from earlier work

αvβ3 receptor, sequence (P06756 31-889 limits assumed): as the sequence (P06756 31-889 limits assumed) above
αvβ3 receptor, sequence (P06756 891-1048 partner limits assumed): as the sequence (P06756 891-1048 partner limits assumed) above
αvβ3 receptor, sequence (P05106 27-788): as the sequence (P05106 27-788) above

Row | Structure (SMILES) | IC50
10 | CC1(C)C2CCC1(CS(=O)(=O)NC(Cc1ccc(OCCCC(=O)NC(=N)N)cc1)C(=O)O)C(=O)C2 (stereo not shown) [(I)] | 0.13 nM
